# Laboratory results as given in ChEMBL document CHEMBL5149979, “Emerging small-molecule inhibitors of the Bruton's tyrosine kinase (BTK): Current development” (Eur J Med Chem, 2021).
# What was measured:
# [1] = Kinetic solubility of the compound; assay type: physicochemical; details: read-out: Kinetic_solubility
# [2] = biological target: T1, Tyrosine-protein kinase BTK (Homo sapiens, UniProt Q06187); test: Inhibition of BTK (unknown origin) using Poly(Glu4,Tyr1) as substrate in presence of ATP
# [3] = Antiproliferative activity against human MINO cells reduction in cell viability incubated for 72 hrs by CellTiter-Glo luminescent cell viability assay; assay type: functional, cell-based
# [4] = biological target: T1, Tyrosine-protein kinase BTK; test: Inhibition of BTK (unknown origin) incubated for 40 mins by radiometric assay
# Raji [5] = test: Antiproliferative activity against human Raji cells assessed as reduction in cell viability measured after 72 hrs by CCK-8 assay; assay type: functional, cell-based
# U-937 [6] = test: Antiproliferative activity against human U-937 cells assessed as reduction in cell viability measured after 72 hrs by CCK-8 assay; details: U-937, 72 h
# HL-60 = test: Antiproliferative activity against human HL-60 cells assessed as reduction in cell viability measured after 72 hrs by CCK-8 assay; details: HL-60, 72 h
# U-937 [7] = test: Induction of apoptosis in human U-937 cells assessed as […] at 40 nM incubated for 48 hrs by AnnexinV-FITC/propidium iodide staining based flow cytometry analysis relative to control; assay type: functional
# NAMALVA = test: Antiproliferative activity against human NAMALWA cells assessed as reduction in cell viability measured after 72 hrs by CCK-8 assay; assay type: functional, cell-based
# Ramos [8] = test: Antiproliferative activity against human Ramos cells assessed as reduction in cell viability measured after 72 hrs by CCK-8 assay; assay type: functional, cell-based
# [9] = biological target: T1, Tyrosine-protein kinase BTK; test: Inhibition of BTK (unknown origin) incubated for 60 mins by ADP-Glo kinase assay
# Bcr/Abl fusion protein = Bcr/Abl fusion protein (Homo sapiens, UniProt P00519); test: Inhibition of BCR-ABL (unknown origin) using peptide GGEAIYAAPFKK as substrate; assay type: protein assay
# [10] = biological target: T1, Tyrosine-protein kinase BTK; test: Inhibition of BTK (unknown origin) using Poly(Glu4,Tyr1) as substrate in presence of ATP by radiometric kinase assay
# Ramos [11] = test: Antiproliferative activity against human Ramos cells assessed as growth inhibition incubated for 72 hrs by resazurin dye based fluorescence microplate reader analysis; assay type: functional
# [12] = biological target: T1, Tyrosine-protein kinase BTK; test: Inhibition of BTK (unknown origin) incubated for 10 mins by caliper mobility shift assay
# DOHH-2 = test: Antiproliferative activity against human DOHH-2 cells assessed as inhibition of cell proliferation by MTT assay; assay type: functional, cell-based
# HEK293 = test: Antiproliferative activity against human HEK293 cells assessed as reduction in cell viability by MTT assay; assay type: functional, cell-based
# Rec1 = test: Antiproliferative activity against human REC1 cells assessed as inhibition of cell proliferation by MTT assay; assay type: functional, cell-based
# L02 = test: Antiproliferative activity against human L02 cells assessed as reduction in cell viability by MTT assay; assay type: functional, cell-based
# [13] = Oral bioavailability in rat at 30 mg/kg measured upto 8 hrs; assay type: ADME, organism-based; details: in vivo
# [14] = Antiproliferative activity against human MINO cells assessed as inhibition of cell proliferation by MTT assay; assay type: functional, cell-based
# OCI-Ly10 = test: Antiproliferative activity against human OCILY10 cells assessed as inhibition of cell proliferation by MTT assay; assay type: functional, cell-based
# TMD8 [15] = test: Antitumor activity against human TMD8 cells xenografted in SCID mouse assessed as tumor growth inhibition at 1.5 mg/kg, po bid administered daily 20 days by caliper analysis; assay type: functional; details: TMD8, 480 h, time 20 day, read-out: TGI
# TMD8 [16] = test: Antitumor activity against human TMD8 cells xenografted in SCID mouse assessed as tumor growth inhibition at 15 mg/kg, po bid administered daily 20 days by caliper analysis; assay type: functional; details: TMD8, 480 h, time 20 day, read-out: TGI
# Raji [17] = test: Antiproliferative activity against human Raji cells assessed as reduction in cell viability incubated for 96 hrs by MTT assay; assay type: functional, cell-based
# [18] = Inhibition of recombinant human BTK cys481S mutant using Poly(Glu4,Tyr1) and ATP as substrate measured after 2 hrs by ADP-Glo kinase assay
# TMD8 [19] = test: Antiproliferative activity against human TMD8 cells assessed as reduction in cell viability incubated for 96 hrs by MTT assay; assay type: functional, cell-based; details: TMD8, 96 h
# TMD8 [20] = test: Antitumor activity against human TMD8 cells xenografted in SCID mouse assessed as tumor growth inhibition at 3 mg/kg, po bid administered daily 20 days by caliper analysis; assay type: functional; details: TMD8, 480 h, time 20 day, read-out: TGI
# [21] = biological target: T1, Tyrosine-protein kinase BTK; test: Inhibition of recombinant human wild type BTK using Poly(Glu4,Tyr1) and ATP as substrate measured after 2 hrs by ADP-Glo kinase assay
# [22] = biological target: Epidermal growth factor receptor (Homo sapiens, UniProt P00533); test: Inhibition EGFR (unknown origin) expressed in baculovirus expression system by ELISA
# TMD8 [23] = test: Antiproliferative activity against human TMD8 cells assessed as reduction in cell viability incubated for 72 hrs by CCK-8 assay; assay type: functional, cell-based; details: TMD8, 72 h
# Z-138 = test: Antiproliferative activity against human Z138 cells reduction in cell viability incubated for 72 hrs by CellTiter-Glo luminescent cell viability assay; details: Z-138, 72 h
# T1 sequence (Q06187 whole entry): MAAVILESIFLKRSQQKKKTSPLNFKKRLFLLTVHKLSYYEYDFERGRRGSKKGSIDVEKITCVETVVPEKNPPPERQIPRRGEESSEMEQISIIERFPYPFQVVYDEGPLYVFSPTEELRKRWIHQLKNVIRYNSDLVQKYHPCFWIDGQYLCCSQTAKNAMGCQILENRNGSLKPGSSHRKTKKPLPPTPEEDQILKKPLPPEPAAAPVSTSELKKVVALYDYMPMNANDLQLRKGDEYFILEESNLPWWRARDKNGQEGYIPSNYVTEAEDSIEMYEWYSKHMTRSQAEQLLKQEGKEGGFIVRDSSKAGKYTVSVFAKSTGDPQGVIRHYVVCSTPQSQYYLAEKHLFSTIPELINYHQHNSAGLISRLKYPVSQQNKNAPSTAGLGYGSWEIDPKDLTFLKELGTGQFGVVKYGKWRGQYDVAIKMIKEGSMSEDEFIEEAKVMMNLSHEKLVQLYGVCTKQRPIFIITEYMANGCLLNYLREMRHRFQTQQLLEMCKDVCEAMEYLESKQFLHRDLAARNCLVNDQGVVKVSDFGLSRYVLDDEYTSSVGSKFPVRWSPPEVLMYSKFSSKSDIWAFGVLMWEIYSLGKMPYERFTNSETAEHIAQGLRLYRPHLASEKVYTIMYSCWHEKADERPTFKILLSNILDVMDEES
# Chain of Epidermal growth factor receptor (P00533 whole entry): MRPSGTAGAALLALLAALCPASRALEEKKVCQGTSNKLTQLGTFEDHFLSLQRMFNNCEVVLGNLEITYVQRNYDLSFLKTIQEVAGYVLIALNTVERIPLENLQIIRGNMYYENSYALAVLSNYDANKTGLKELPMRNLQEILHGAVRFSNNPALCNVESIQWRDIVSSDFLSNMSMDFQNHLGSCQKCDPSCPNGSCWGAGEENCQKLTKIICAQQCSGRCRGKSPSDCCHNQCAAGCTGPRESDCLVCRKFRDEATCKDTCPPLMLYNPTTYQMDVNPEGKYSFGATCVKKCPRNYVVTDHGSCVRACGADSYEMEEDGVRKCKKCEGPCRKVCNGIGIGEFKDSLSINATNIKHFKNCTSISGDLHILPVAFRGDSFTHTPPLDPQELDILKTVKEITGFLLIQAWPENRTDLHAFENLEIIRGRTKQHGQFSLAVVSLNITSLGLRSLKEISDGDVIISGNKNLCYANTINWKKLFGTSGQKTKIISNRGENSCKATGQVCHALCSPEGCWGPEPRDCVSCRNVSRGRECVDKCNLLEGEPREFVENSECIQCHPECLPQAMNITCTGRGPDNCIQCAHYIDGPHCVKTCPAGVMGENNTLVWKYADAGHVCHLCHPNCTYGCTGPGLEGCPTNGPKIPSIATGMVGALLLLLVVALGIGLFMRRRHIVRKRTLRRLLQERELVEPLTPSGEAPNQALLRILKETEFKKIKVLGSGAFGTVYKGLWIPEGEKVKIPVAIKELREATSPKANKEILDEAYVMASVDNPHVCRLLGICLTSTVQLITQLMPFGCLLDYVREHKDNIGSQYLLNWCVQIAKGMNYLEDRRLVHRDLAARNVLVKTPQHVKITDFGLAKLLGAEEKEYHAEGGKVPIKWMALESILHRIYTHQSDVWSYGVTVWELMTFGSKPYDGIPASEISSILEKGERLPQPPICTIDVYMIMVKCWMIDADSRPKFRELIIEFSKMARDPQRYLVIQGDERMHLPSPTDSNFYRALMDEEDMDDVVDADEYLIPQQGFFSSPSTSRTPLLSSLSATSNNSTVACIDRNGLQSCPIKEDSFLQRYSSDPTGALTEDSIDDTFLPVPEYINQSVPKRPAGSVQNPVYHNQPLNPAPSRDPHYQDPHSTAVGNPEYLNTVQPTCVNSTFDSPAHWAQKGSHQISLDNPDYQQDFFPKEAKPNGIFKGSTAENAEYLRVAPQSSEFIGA
# Chain of Bcr/Abl fusion protein (P00519 whole entry, the tested form may be a part): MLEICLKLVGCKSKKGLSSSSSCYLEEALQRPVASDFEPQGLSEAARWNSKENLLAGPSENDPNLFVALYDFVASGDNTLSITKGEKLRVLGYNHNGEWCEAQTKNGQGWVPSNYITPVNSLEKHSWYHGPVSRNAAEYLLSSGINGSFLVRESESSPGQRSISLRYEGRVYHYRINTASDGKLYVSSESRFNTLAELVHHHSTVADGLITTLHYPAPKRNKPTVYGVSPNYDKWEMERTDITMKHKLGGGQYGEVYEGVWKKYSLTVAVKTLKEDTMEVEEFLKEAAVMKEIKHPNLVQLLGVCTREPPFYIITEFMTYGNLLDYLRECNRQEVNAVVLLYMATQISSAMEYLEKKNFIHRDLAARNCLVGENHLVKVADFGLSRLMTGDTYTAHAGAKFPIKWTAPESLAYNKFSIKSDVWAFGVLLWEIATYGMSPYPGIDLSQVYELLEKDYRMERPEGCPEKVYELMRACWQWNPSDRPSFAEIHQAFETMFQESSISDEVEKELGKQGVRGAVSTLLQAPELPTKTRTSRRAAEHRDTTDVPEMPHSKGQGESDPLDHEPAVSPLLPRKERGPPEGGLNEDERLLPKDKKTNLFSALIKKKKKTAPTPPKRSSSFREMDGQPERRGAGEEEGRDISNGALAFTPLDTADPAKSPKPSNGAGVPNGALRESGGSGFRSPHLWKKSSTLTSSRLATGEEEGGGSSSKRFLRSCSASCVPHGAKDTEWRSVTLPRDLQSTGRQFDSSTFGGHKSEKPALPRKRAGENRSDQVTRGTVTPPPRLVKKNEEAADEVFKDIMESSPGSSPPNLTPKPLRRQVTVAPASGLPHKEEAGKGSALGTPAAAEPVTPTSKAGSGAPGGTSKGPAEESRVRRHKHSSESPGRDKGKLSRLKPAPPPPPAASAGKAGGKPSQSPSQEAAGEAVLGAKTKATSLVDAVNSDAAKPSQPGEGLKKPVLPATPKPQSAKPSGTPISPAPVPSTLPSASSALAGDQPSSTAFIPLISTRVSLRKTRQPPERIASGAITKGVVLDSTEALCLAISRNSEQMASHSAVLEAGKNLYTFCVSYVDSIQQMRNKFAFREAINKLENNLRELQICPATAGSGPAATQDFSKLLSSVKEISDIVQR
# Chain of Bcr/Abl fusion protein (P11274 whole entry, further chain, the tested form may be a part): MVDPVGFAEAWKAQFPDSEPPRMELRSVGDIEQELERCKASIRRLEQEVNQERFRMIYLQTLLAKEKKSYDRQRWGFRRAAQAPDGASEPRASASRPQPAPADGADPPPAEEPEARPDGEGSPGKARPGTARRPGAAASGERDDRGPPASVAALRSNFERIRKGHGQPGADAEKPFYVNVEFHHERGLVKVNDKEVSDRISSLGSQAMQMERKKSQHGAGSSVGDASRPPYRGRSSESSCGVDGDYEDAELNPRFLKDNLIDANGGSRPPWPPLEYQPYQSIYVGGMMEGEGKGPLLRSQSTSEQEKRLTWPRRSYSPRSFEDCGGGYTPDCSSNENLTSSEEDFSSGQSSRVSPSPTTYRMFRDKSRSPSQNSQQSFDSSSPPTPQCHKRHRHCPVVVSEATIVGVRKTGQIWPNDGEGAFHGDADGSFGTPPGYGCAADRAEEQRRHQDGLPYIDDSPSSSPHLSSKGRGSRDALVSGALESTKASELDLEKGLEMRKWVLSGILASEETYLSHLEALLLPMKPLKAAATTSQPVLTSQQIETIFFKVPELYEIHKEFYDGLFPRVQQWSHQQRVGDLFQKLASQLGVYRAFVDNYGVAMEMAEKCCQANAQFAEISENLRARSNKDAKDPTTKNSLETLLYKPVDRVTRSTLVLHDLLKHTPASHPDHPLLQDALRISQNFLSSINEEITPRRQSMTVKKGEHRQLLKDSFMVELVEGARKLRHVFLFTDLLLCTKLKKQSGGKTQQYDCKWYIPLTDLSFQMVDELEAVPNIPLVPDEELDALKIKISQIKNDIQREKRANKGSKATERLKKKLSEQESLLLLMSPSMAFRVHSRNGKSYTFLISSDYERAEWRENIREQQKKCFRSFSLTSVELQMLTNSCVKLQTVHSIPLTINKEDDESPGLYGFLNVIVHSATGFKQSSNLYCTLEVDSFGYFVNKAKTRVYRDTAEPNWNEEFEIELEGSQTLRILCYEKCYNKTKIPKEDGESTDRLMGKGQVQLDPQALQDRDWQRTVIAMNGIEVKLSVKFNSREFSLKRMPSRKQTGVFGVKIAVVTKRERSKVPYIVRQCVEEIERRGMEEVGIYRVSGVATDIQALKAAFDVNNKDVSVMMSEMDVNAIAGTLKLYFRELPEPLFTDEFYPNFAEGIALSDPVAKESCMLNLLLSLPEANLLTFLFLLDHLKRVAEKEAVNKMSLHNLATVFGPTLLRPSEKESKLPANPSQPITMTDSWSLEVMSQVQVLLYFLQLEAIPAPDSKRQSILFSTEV
structure (smiles),measurement,setting,value
C=CS(=O)(=O)N1CCC(Cn2cc(-c3ccc4c(c3)OCO4)c3c(N)ncnc32)CC1,solubility kinetic,[1],100 µg/mL
same,IC50,[2],1.32 nM
Nc1ccc(Cn2nc(-c3ccc(Oc4ccccc4)cc3)c3c(N)ncnc32)cc1,IC50,[3],13900 nM
same,IC50,[4],82 nM
C=CC(=O)Nc1cccc(Nc2nc(Nc3ccc(Cn4cc(C)nc4CC)cc3)ncc2Cl)c1,IC50,Raji [5],< 10800 nM
same,IC50,U-937 [6],38 nM
same,IC50,HL-60,109 nM
same,Activity,U-937 [7],55%
same,IC50,NAMALVA,< 10800 nM
same,IC50,Ramos [8],< 10800 nM
same,IC50,[9],17.7 nM
CN1CCN(c2ccc(Nc3nc(Nc4ccc(F)c(F)c4)c4ncn(CC5CC5)c4n3)cc2F)CC1,IC50,Bcr/Abl fusion protein,580 nM
same,IC50,[10],2650 nM
same,GI50,Ramos [11],4100 nM
C=C(Cl)C(=O)N1CCC[C@H](n2nc(-c3ccc(Oc4ccccc4)cc3)c3c(N)ncnc32)C1,IC50,[12],2.5 nM
same,IC50,DOHH-2,220 nM
same,IC50,HEK293,5460 nM
same,IC50,Rec1,10 nM
same,IC50,L02,15900 nM
same,bioavailability,[13],6%
same,IC50,[14],560 nM
same,IC50,OCI-Ly10,160 nM
Nc1cccc(Cn2nc(-c3ccc(Oc4ccccc4)cc3)c3c(N)ncnc32)c1,IC50,[3],9500 nM
same,IC50,[4],75 nM
C=CC(=O)Nc1cccc(Nc2nc(Nc3ccc(Cn4cc(C)nc4CC)cc3)ncc2F)c1,IC50,Raji [5],< 10800 nM
same,IC50,U-937 [6],106 nM
same,IC50,HL-60,116 nM
same,IC50,NAMALVA,< 10800 nM
same,IC50,Ramos [8],< 10800 nM
same,IC50,[9],42.4 nM
CN1CCN(c2ccc(Nc3nc(Nc4ccc(F)c(F)c4)c4ncn(CC5CC5)c4n3)cc2)CC1,IC50,[10],580 nM
same,GI50,Ramos [11],4630 nM
C=CC(=O)N1CC2CC(n3nc(-c4ccc(C(=O)Nc5ccccn5)cc4)c4c(N)ncnc43)CC2C1 (stereo not given),inhibition in vivo at 1.5 mg/kg,TMD8 [15],10%
same,inhibition in vivo at 15 mg/kg,TMD8 [16],88%
same,IC50,Raji [17],13200 nM
same,IC50,[18],14 nM
same,IC50,TMD8 [19],0.78 nM
same,inhibition in vivo at 3 mg/kg,TMD8 [20],50%
same,IC50,[21],1 nM
C=CC(=O)Nc1cccc(N2C(=O)OC(C)c3cnc(Nc4ccc(N5CCN(C)CC5)cc4OC)nc32)c1 (stereo not given),IC50,[22],47.4 nM
same,IC50,TMD8 [23],28 nM
same,IC50,[2],7 nM
Nc1ncnc2c1c(-c1ccc(Oc3ccccc3)cc1)nn2Cc1cccc(NC(=O)CCl)c1,IC50,[3],900 nM
same,IC50,[4],27 nM
C=CC(=O)Nc1cccc(N2C(=O)OCc3cnc(Nc4ccc(N5CCN(C)CC5)cc4OC)nc32)c1,IC50,[22],28.8 nM
same,IC50,[2],4.7 nM
Nc1ncnc2c1c(-c1ccc(Oc3ccccc3)nc1)nn2C1CCCN(C(=O)CCl)C1 (stereo not given),IC50,Z-138,400 nM
same,IC50,[3],400 nM
same,IC50,[4],36 nM
"C=CC(=O)N1CCCC(Cn2cc(-c3ccc(Oc4ccccc4)cc3)c3c(N)ncnc32)C1 (single isomer, unassigned)",IC50,[2],1.71 nM
